According to ChEMBL document CHEMBL3045881, “(Hetero)aroyl esters of 2-(N-phthalimido)ethanol and analogues: parallel synthesis, anti-HIV-1 activity and cytotoxicity” (Med Chem Res, 2010):
The source made the active and inactive calls. The calls are words filed in the database; no cut-off is given here.

Tests used:
[1] = tested on: Human immunodeficiency virus 1; assay: Antiviral activity against Human immunodeficiency virus 1 harboring reverse transcriptase K103N, Y181C double mutant infected human MT4 assessed as inhibition of virus-induced cytopathic effect after 4 days by MTT assay; assay type: functional, organism-based
[2] = tested on: Human immunodeficiency virus 1; assay: Antiviral activity against efavirenz-resistant Human immunodeficiency virus 1 harboring reverse transcriptase K103R, V179D, P225H triple mutant infected human MT4 assessed as inhibition of virus-induced cytopathic effect after 4 days by MTT assay; assay type: functional, organism-based
[3] = Cytotoxicity against mock infected Homo sapiens (human) MT4 cells assessed as cell viability by MTT assay; assay type: cell-based
[4] = tested on: Human immunodeficiency virus 1; assay: Antiviral activity against Human immunodeficiency virus 1 harboring reverse transcriptase Y181C mutant infected human MT4 assessed as inhibition of virus-induced cytopathic effect after 4 days by MTT assay; assay type: functional, organism-based; conditions: Human immunodeficiency virus 1, 96 h
[5] = tested on: Human immunodeficiency virus 1; assay: Antiviral activity against wild type Human immunodeficiency virus 1 infected human MT4 cells assessed as inhibition of virus-induced cytopathic effect after 4 days by MTT assay; assay type: functional, organism-based; conditions: Human immunodeficiency virus 1, MT4, 96 h

SMILES	Activity [1]	Activity [2]	CC50 [3] [µM]	EC50 [4] [µM]	EC50 [5] [µM]
O=C(OCCN1C(=O)c2ccccc2C1=O)c1cc(F)ccc1Br	inactive	inactive	> 100	90	35
CCC(C(=O)OCCN1C(=O)c2ccccc2C1=O)c1ccccc1 (racemic)			> 100		16
Cc1cc(C(=O)OCCN2C(=O)c3ccccc3C2=O)ccc1Br			> 100		60
O=C(OCCN1C(=O)c2ccccc2C1=O)c1ccccc1			> 100		55
Cc1cc(C(=O)OC2Cc3cccc4cccc2c34)ccc1Br (racemic)			8		> 100
O=C(OCCN1C(=O)c2ccccc2C1=O)c1ccccc1Cl			> 100		80
O=C(OCCN1C(=O)c2ccccc2C1=O)c1c(F)cccc1F			> 100		49
O=C(OCCN1C(=O)c2ccccc2C1=O)c1cc([N+](=O)[O-])ccc1F			> 100		> 100
O=C(OCCN1C(=O)c2ccccc2C1=O)c1ccc(Cl)nc1			> 100		> 100
O=C(OCCN1C(=O)c2ccccc2C1=O)c1ccc([N+](=O)[O-])cc1Cl			> 100		15
O=C(OCCCN1C(=O)c2ccccc2C1=O)c1cc(F)ccc1F			> 100		> 100
O=C(OCCN1C(=O)c2ccccc2C1=O)c1cc(F)ccc1Cl			> 100		> 100
O=C(OCCN1C(=O)c2ccccc2C1=O)c1cccc(F)c1F			> 100		> 100
O=C(OC1Cc2cccc3cccc1c23)c1ccc(Cl)c(Cl)c1 (racemic)			42		> 100
O=C(OCCN1C(=O)c2ccccc2C1=O)c1ccccc1[N+](=O)[O-]			> 100		80
O=C(OCCN1C(=O)[C@H]2CC=CC[C@H]2C1=O)c1cc(F)ccc1F			> 100		> 100
O=C(OCCN1C(=O)c2ccccc2C1=O)c1cccc(F)c1			> 100		75
O=C(OCCc1c[nH]c2ccccc12)c1ccc(Cl)c([N+](=O)[O-])c1			6		> 6
O=C(OCCN1C(=O)c2ccccc2C1=O)c1cc([N+](=O)[O-])ccc1Cl			30		> 30
O=C(OC1Cc2cccc3cccc1c23)c1ccc(Cl)c([N+](=O)[O-])c1 (racemic)			1.6		> 100
CC(C)(C)c1ccc(C(=O)OCCN2C(=O)c3ccccc3C2=O)cc1			92		> 92
O=C(OCCN1C(=O)c2ccccc2C1=O)c1ccc(Br)cc1			> 100		> 100
O=C(OCCN1C(=O)c2ccccc2C1=O)c1ccc(F)c(F)c1			> 100		> 100
O=C(OCCOc1ccc(Br)cc1)c1ccc(Cl)c([N+](=O)[O-])c1			59		> 59
CCCCCc1ccc(C(=O)OCCN2C(=O)c3ccccc3C2=O)cc1			> 100		14
Cc1ccc2c(c1)C(=O)N(CCOC(=O)c1ccc(Cl)c([N+](=O)[O-])c1)C2=O			81		> 81
CC(CN1C(=O)c2ccccc2C1=O)OC(=O)c1ccc(Cl)c([N+](=O)[O-])c1 (racemic)			34		> 34
Cc1cccc(C(=O)OCCN2C(=O)c3ccccc3C2=O)c1			> 100		82

SMILES	Activity [1]	Activity [2]	CC50 [3] [µM]	EC50 [4] [µM]	EC50 [5] [µM]
O=C(OCCN1C(=O)c2ccccc2C1=O)c1cccc(Cl)c1			> 100		93
Cc1ccc2c(c1)C(=O)N(CCOC(=O)c1cc(F)ccc1F)C2=O			> 100		> 100
O=C(OCCN1C(=O)c2ccccc2C1=O)c1ccc(Cl)c([N+](=O)[O-])c1			> 100		0.7
O=C(OCCCN1C(=O)c2ccccc2C1=O)c1ccc(Cl)c([N+](=O)[O-])c1			> 100		> 100
O=C(OCCN1C(=O)c2ccccc2C1=O)c1cc(Cl)ccc1F			> 100		> 100
O=C(/C=C/c1ccccc1)OCCN1C(=O)c2ccccc2C1=O			> 100		50
O=C(OCCN1C(=O)[C@H]2CC=CC[C@H]2C1=O)c1ccc(Cl)c([N+](=O)[O-])c1			36		> 36
O=C(OCCN1C(=O)c2ccccc2C1=O)c1cc(F)ccc1F			> 100		0.2
CC(COC(=O)c1cc(F)ccc1F)N1C(=O)c2ccccc2C1=O (racemic)			> 100		> 100
O=C(OCCN1C(=O)c2ccccc2C1=O)c1cc(F)cc(F)c1			> 100		> 100
Cc1cc(C(=O)OCCN2C(=O)c3ccccc3C2=O)c(C)o1			> 100		28
O=C(OCCN1C(=O)c2ccccc2C1=O)c1ccc2ccccc2c1			> 100		> 100
O=C(OCN1C(=O)c2ccccc2C1=O)c1ccc(Cl)c([N+](=O)[O-])c1			11		> 11
O=C(OCCN1C(=O)c2ccccc2C1=O)c1ccc(Cl)c(Cl)c1			> 100		0.7
CC(C)(C)c1ccc2c(c1)C(=O)N(CCOC(=O)c1cc(F)ccc1F)C2=O			> 100		> 100
O=C(OCCN1C(=O)[C@H]2CCCC[C@H]2C1=O)c1cc(F)ccc1F			> 100		> 100
O=C(OCN1C(=O)c2ccccc2C1=O)c1cc(F)ccc1F			> 100		> 100
O=C(OCCN1C(=O)c2ccccc2C1=O)c1ccc(F)cc1F			> 100		> 100
O=C(OCCN1C(=O)c2ccccc2C1=O)c1cc(Cl)cc(Cl)c1			> 100		27
O=C(OCCN1C(=O)[C@H]2CCCC[C@H]2C1=O)c1ccc(Cl)c([N+](=O)[O-])c1			28		> 28
O=C(OCCS(=O)(=O)c1ccccc1)c1ccc(Cl)c(Cl)c1			19		> 19
O=C(OCCN1C(=O)c2ccccc2C1=O)c1cccc([N+](=O)[O-])c1			> 100		69
O=C(OCCN1C(=O)c2ccccc2C1=O)c1cc(C(F)(F)F)ccc1F			> 100		> 100
O=C(OCCN1C(=O)c2ccccc2C1=O)c1cccnc1Cl			> 100		> 100
Cc1ccc(F)cc1C(=O)OCCN1C(=O)c2ccccc2C1=O			> 100		47
O=C(OCCOc1ccc([N+](=O)[O-])cc1)c1ccc(Cl)c([N+](=O)[O-])c1			47		> 47
CC(CN1C(=O)c2ccccc2C1=O)OC(=O)c1cc(F)ccc1F (racemic)			> 100		> 100
